From patent publication US20220023258A1, “METHODS OF TREATING CONDITIONS RELATED TO THE S1P1 RECEPTOR” (Arena Pharmaceuticals, Inc., priority 2018, published 2022)
“Also recorded” adds a separate entry of the source. Structures can show the parent of a compound that is named as a salt.

Tests used:
[1] = test system: lymphocytes; assay: Dose-ranging study in ulcerative colitis: lymphocyte counts; format: in vivo, human; conditions: 12 weeks
Description: Exploratory endpoints included change from baseline in lymphocyte counts at Weeks 1, 2, 4, 8, and 12; proportion of patients achieving clinical remission at Week 12; and proportion of patients who achieve clinical response at Week 12.

[2] = test system: lymphocytes; assay: Multiple ascending dose study: lymphocyte counts; format: in vivo, human; conditions: for Lymphocytes On Treatment Mean (SD) / Lymphocytes Percent Change from Baseline Mean / Lymphocytes Percent Change from Baseline Median / Lymphocytes Percent Change from Baseline Min, Max: day 21
Description: (§1) A randomized, double-blind, placebo-controlled, sequential, ascending, multiple dose study to assess the safety, tolerability, and pharmacokinetics of the L-arginine salt of Compound 1 administered to healthy adult subjects was conducted. This study was designed to evaluate the safety, tolerability, pharmacokinetics, and pharmacodynamics of the L-arginine salt of Compound 1.
(§2) Cohort 1 was dosed with 0.7 mg (by administering two 0.35 mg formulations) for 21 days. Cohort 2 was dosed with 1.35 mg (by administering both a 0.35 mg formulation and a 1 mg formulation) for 21 days. Cohort 3 was dosed with 2.0 mg for 21 days. Cohort 4 was dosed with 0.35 mg for 7 days and then with 2.0 mg for 14 days. Cohort 5 was dosed with 0.5 for 7 days and then with 3.0 mg (by administering both a 1 mg formulation and a 2 mg formulation) for 14 days.

[3] = test system: patients with ulcerative colitis; assay: Dose-ranging study in ulcerative colitis: safety; conditions: for serious adverse events (SAEs): placebo 11.1%;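 on all read-outs here: Double-blind randomized parallel-group trial versus placebo, with the study drug given orally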
Description: Patients were instructed to take their capsule on an empty stomach (overnight fast of approximately 8 hours) and to avoid eating for approximately 1 hour after dosing.

[4] = test system: patients with ulcerative colitis; assay: Dose-ranging study in ulcerative colitis: Mayo scores, endoscopic improvement, remission; format: in vivo, human; conditions: for improvement in 2-component Mayo Score relative to placebo / improvement in Total Mayo Score relative to placebo: Week 12; for proportion of patients achieving clinical remission, defined by the 3-component Mayo Score / improvement in 3-component Partial Mayo Score relative to placebo / patients who achieved endoscopic improvement: week 12
Description: The treatment formulation was composed of immediate-release, hard gelatin capsules containing L-arginine salt of Compound 1. The placebo was composed of hard gelatin capsules containing microcrystalline cellulose. […] The primary objective of this proof-of-concept study was to determine the effect of treatment with the L-arginine salt of Compound 1 in changing 3-component Mayo Clinic score (score ranging from 0 to 9, including stool frequency, rectal bleeding and findings on endoscopy) at 12 weeks. […] ANCOVA model, adjusted for current oral corticosteroid use, prior exposure to TNF-alpha antagonists, and baseline value, was used to estimate changes in Mayo Clinic Score. Mantel-Haenszel method (estimated treatment difference by adjusting current oral corticosteroid use and prior exposure to TNF-alpha antagonists) used to estimate proportion difference for dichotomous parameters. Missing individual Mayo subscores impacting efficacy measures were imputed using multiple imputation methodology with observed case analysis for sensitivity. […] Hierarchical closed testing procedure for primary and secondary endpoints at 0.05 alpha level was used.

[5] = test system: healthy adult subjects; assay: Multiple ascending dose study: heart rate, blood pressure, QTc; format: in vivo, human; conditions: Day 1 to Day 23
Description: as §1, §2
The following safety assessments were conducted: physical examinations with ophthalmoscopy, clinical laboratory tests (serum chemistry, coagulation, and urinalysis), vital signs, continuous telemetry (12 lead ECG), safety ECGs, pulmonary function testing (PFT), serum protein electrophoresis (SPEP) and serum immunoelectrophoresis (IEP), and adverse event reporting.

[6] = 0.35 mg for 7 days then 2.0 mg for 14 days
[7] = 0.5 mg for 7 days then 3.0 mg for 14 days

O=C(O)C[C@H]1CCc2c1[nH]c1ccc(OCc3ccc(C4CCCC4)c(C(F)(F)F)c3)cc21 [L-arginine salt of Compound 1]
reduction in lymphocytes relative to placebo ([1]; 1 mg q.d.): 37%
reduction in lymphocytes relative to placebo ([1]; 2 mg q.d., p<0.001): 57%
Lymphocytes On Treatment Mean (SD) [2, 6]: 0.62 (0.18) 10^3/μl
Lymphocytes Percent Change from Baseline Mean [2, 6]: −67.34%
Lymphocytes Percent Change from Baseline Median [2, 6]: −67.54%
Lymphocytes Percent Change from Baseline Min, Max [2, 6]: −77.27 to −57.14%
Lymphocytes On Treatment Mean (SD) [2, 7]: 0.62 (0.25) 10^3/μl
Lymphocytes Percent Change from Baseline Mean [2, 7]: −66.16%
Lymphocytes Percent Change from Baseline Median [2, 7]: −65.02%
Lymphocytes Percent Change from Baseline Min, Max [2, 7]: −85.19 to −53.85%
Lymphocytes On Treatment Mean (SD) ([2]; 0.7 mg for 21 days): 1.06 (0.28) 10^3/μl
Lymphocytes Percent Change from Baseline Mean ([2]; 0.7 mg for 21 days): −41.03%
Lymphocytes Percent Change from Baseline Median ([2]; 0.7 mg for 21 days): −40.37%
Lymphocytes Percent Change from Baseline Min, Max ([2]; 0.7 mg for 21 days): −55.56 to −23.08%
Lymphocytes On Treatment Mean (SD) ([2]; 1.35 mg for 21 days): 0.89 (0.32) 10^3/μl
Lymphocytes Percent Change from Baseline Mean ([2]; 1.35 mg for 21 days): −53.43%
Lymphocytes Percent Change from Baseline Median ([2]; 1.35 mg for 21 days): −51.85%
Lymphocytes Percent Change from Baseline Min, Max ([2]; 1.35 mg for 21 days): −68.75 to −30.77%
Lymphocytes On Treatment Mean (SD) ([2]; 2.0 mg for 21 days): 0.62 (0.18) 10^3/μl
Lymphocytes Percent Change from Baseline Mean ([2]; 2.0 mg for 21 days): −68.81%
Lymphocytes Percent Change from Baseline Median ([2]; 2.0 mg for 21 days): −69.44%
Lymphocytes Percent Change from Baseline Min, Max ([2]; 2.0 mg for 21 days): −80.00 to −55.56%
dose with maximal effect on lymphocyte lowering (dose-dependent) ([2]; multiple dosing 21 days): 2 mg
% of Patients with Serious TEAE ([3]; 1 mg (n = 52)): (5.8) %
% of Patients with TEAE Leading to Discontinuation of Study Drug ([3]; 1 mg (n = 52)): (5.8) %
% of Patients with any TEAE ([3]; 1 mg (n = 52)): (59.6) %
Number of Deaths of Any Reason ([3]; 1 mg (n = 52)): 0
Number of Patients with Serious TEAE ([3]; 1 mg (n = 52)): 3
Number of Patients with TEAE Leading to Discontinuation of Study Drug ([3]; 1 mg (n = 52)): 3
Number of Patients with any TEAE ([3]; 1 mg (n = 52)): 31
discontinuations from study related to bradycardia or AV block ([3]; 1 mg and 2 mg q.d., 12 weeks): no discontinuations from study related to bradycardia or AV block
liver function tests (LFTs) compared to placebo ([3]; 1 mg and 2 mg q.d., 12 weeks): no increases in liver function tests
reports of macular edema or pulmonary function test abnormalities ([3]; 1 mg and 2 mg q.d., 12 weeks): no reports of macular edema or pulmonary function test abnormalities; also recorded: no reports of macular edema; and no reports of abnormal pulmonary function tests
serious adverse events related to heart rate changes or AV block ([3]; 1 mg and 2 mg q.d., 12 weeks): No serious adverse events related to heart rate changes or AV block
severe or life-threatening infection ([3]; 1 mg and 2 mg q.d., 12 weeks): No severe or life-threatening infection occurred
tolerability ([3]; 1 mg and 2 mg q.d., 12 weeks): well tolerated
serious adverse events (SAEs) ([3]; 1 mg q.d.): 5.8%
% of Patients with TEAE Leading to Discontinuation of Study Drug ([3]; 2 mg (n = 50)): (8.0) %
% of Patients with any TEAE ([3]; 2 mg (n = 50)): (56.0) %
Number of Deaths of Any Reason ([3]; 2 mg (n = 50)): 0
Number of Patients with Serious TEAE ([3]; 2 mg (n = 50)): 0
Number of Patients with TEAE Leading to Discontinuation of Study Drug ([3]; 2 mg (n = 50)): 4
Number of Patients with any TEAE ([3]; 2 mg (n = 50)): 28
serious adverse events (SAEs) ([3]; 2 mg q.d.): 0%
mean change (decrease) in heart rate, hourly ECGs ([3]; Day 1, any time point, both 1 mg and 2 mg groups): < 10 bpm
mean decrease in heart rate from baseline ([3]; after Day 1 through 12 weeks, either dose group (1 mg, 2 mg)): ≤ 6 bpm
improvement in 2-component Mayo Score relative to placebo ([4]; 1 mg q.d., p=0.086): 0.39
improvement in Total Mayo Score relative to placebo ([4]; 1 mg q.d., p=0.128): 0.60
proportion of patients achieving clinical remission, defined by the 3-component Mayo Score ([4]; 1 mg q.d., p=0.136): 16.0%
improvement in 3-component Partial Mayo Score relative to placebo ([4]; 1 mg q.d., p=0.146): 0.43
patients who achieved endoscopic improvement ([4]; 1 mg q.d., p=0.306): 22.5%
Remission defined by the 4-component Total Mayo Score ([4]; 1 mg q.d., p=0.077): 15.4%
improvement in Total Mayo Score relative to placebo ([4]; 2 mg q.d., p=0.010): 1.27
proportion of patients achieving clinical remission, defined by the 3-component Mayo Score ([4]; 2 mg q.d., p<0.001 vs placebo 8.1%): 33.0%
patients who achieved endoscopic improvement ([4]; 2 mg q.d., p=0.003 vs placebo 17.8%): 41.8%
improvement in 3-component Partial Mayo Score relative to placebo ([4]; 2 mg q.d., p=0.009): 0.99
improvement in 2-component Mayo Score relative to placebo ([4]; dose not printed in sentence (high dose), p=0.002): 0.84
Remission defined by the 4-component Total Mayo Score ([4]; dose not printed in sentence (high dose), p=0.004 vs placebo 6.0%): 24.5%
Maximum post-dose QTc, Change from Baseline Mean [5, 6]: −0.10 MS
Maximum post-dose QTc, Change from Baseline Median [5, 6]: 0.50 MS
Maximum post-dose QTc, Change from Baseline Min, Max [5, 6]: −19.00 to 17.00 MS
Maximum post-dose QTc, On Treatment Mean (SD) [5, 6]: 411.10 (19.88) MS
Maximum post-dose QTc, Change from Baseline Mean [5, 7]: 5.60 MS
Maximum post-dose QTc, Change from Baseline Median [5, 7]: 5.00 MS
Maximum post-dose QTc, Change from Baseline Min, Max [5, 7]: −5.00 to 15.00 MS
Maximum post-dose QTc, On Treatment Mean (SD) [5, 7]: 425.10 (13.90) MS
Maximum post-dose QTc, Change from Baseline Mean ([5]; 0.7 mg for 21 days): 3.60 MS
Maximum post-dose QTc, Change from Baseline Median ([5]; 0.7 mg for 21 days): 3.50 MS
Maximum post-dose QTc, Change from Baseline Min, Max ([5]; 0.7 mg for 21 days): −8.00 to 16.00 MS
